Results as given in patent US20260294906A1, “TREATING PSORIASIS USING A SMALL MOLECULE INHIBITOR OF TUMOR NECROSIS FACTOR ALPHA” (SANOFI, priority 2023, published 2026).
“Also recorded” adds a separate entry of the source.

Columns and labels:
Type in all cases: in vivo, human
[1] = test system: patients with mild to moderate psoriasis; experiment: Clinical response by static Investigator's Global Assessment (sIGA) score, phase 1 placebo-controlled study; settings: 200 mg BID
Procedure: (§1) A double-blind, randomized, placebo-controlled phase 1 study was carried out in participants with mild to moderate psoriasis. Study participants were randomized to 200 mg twice a day (BID) of Compound 1 or placebo in 2:1 ratio (approximately 24 in the treatment group and 12 in the placebo group). The study comprised an up to 4-week screening period, and a 4-week treatment period with Compound 1 or placebo. An end-of-study visit was carried out 10±3 days after the last investigational medicinal product (IMP) administration.
(§2) Two study interventions were used, Compound 1 and placebo. The Compound 1 intervention comprised 4× tablets of Compound 1 50 mg twice daily, i.e. 200 mg BID, for 4 weeks. The placebo intervention was 4× tablets of placebo twice daily for 4 weeks. Tablets were administered orally.
The interventions were used in two arms of the study. Arm 1 was the experimental arm and it involved participants receiving 200 mg of Compound BID for 4 weeks under fed conditions. Arm 2 was the placebo arm and it involved participants receiving the matching placebo tablets for 4 weeks under fed conditions.
The sIGA employed in this study is a six-point ordinal scale used to assess the global severity of disease over the body as a whole, as measured by the overall degree of induration, scaling and erythema of a subject's psoriatic lesions. For statistical analysis, the scale was assigned scores of 0 to 5, for ‘clear’ to ‘very severe’, respectively.
Scoring was accorded to a subject on a scale of 0 to 5 for each of erythema, induration, and scaling; a mean sIGA score was calculated as the mean average of those individual scores and this was translated into an overall sIGA score (an integer between 0 and 5) as described in the tables below:
The sIGA score was assessed as described herein.

[2] = test system: participants with mild to moderate psoriasis; experiment: Adverse events and safety in the clinical study
Procedure: as §1
(§3) The primary objective of the study was to assess the safety, tolerability, and clinical efficacy of Compound 1 at 200 mg BID via oral administration. Also evaluated was the clinical effect of Compound 1 as compared to placebo on the percent change in PASI and TLS scores from baseline to week 2 and week 4. The percent change in PASI score from baseline to week 4 was determined. TLS score was also assessed over the same time period. Also assessed was the effect of Compound 1 on biomarkers of psoriasis. Blood samples collected at predetermined time points were processed to quantify serum levels of biomarkers, including interleukin (IL)-17A, IL-17F, and IL-22 by high sensitivity methods. IL-17A, IL-17F and IL-22 are the main cytokines released by Th17 cells. Plasma levels of Compound 1 were measured to assess pharmacokinetics in the study population.
as §2
Adverse events (AEs) were reported by the participant or observed by the Investigator, and were defined as follows: • An AE is any untoward medical occurrence in a patient or clinical study participant, temporally associated with the use of study intervention, whether or not considered related to the study intervention. • NOTE: An AE can therefore be any unfavorable and unintended sign (including an abnormal laboratory finding), symptom, or disease (new or exacerbated) temporally associated with the use of study intervention.
Events meeting the AE definition: • Any abnormal laboratory test results (hematology, clinical chemistry, or urinalysis) or other safety assessments (e.g., ECG, radiological scans, vital signs measurements), including those that worsen from baseline, considered clinically significant in the medical and scientific judgment of the Investigator (i.e., not related to progression of underlying disease), e.g.: • Symptomatic and/or • Requiring either corrective treatment or consultation, and/or • Leading to IMP discontinuation or modification of dosing, and/or • Fulfilling a seriousness criterion, and/or • Defined as an AESI • Exacerbation of a chronic or intermittent pre-existing condition including either an increase in frequency and/or intensity of the condition. • New condition detected or diagnosed after study intervention administration even though it may have been present before the start of the study. • Signs, symptoms, or the clinical sequelae of a suspected drug-drug interaction. • Signs, symptoms, or the clinical sequelae of a suspected overdose of either study intervention or a concomitant medication. • Lack of efficacy or failure of expected pharmacological action per se will not be reported as an AE or SAE. Such instances will be captured in the efficacy assessments. However, the signs, symptoms, and/or clinical sequelae resulting from lack of efficacy will be reported as AE or SAE if they fulfill the definition of an AE or SAE.
Complications that occur during hospitalization are AEs. If a complication prolongs hospitalization or fulfills any other serious criteria, the event is serious. […]

IL-17A = experiment: Serum levels of biomarker IL-17A (single molecule counting sandwich immunoassay)
Procedure: as §3, §2
Blood samples were processed for analysis of IL-17A, IL-17F and IL-22 in serum samples by high sensitivity methods. Samples were collected according to the schedule of activity described above.
As indicated above, peripheral blood samples collected at predetermined time points were processed to quantify serum levels of biomarkers of psoriasis including IL-17A, IL-17F, and IL-22. Levels of IL-17A and IL-17F were quantified using a single molecule counting sandwich immunoassay (SMCxPro™, Millipore—see also Hwang et al., Methods (2019) 158:69-76). Levels of IL-22 were quantified using a single-molecule array ELISA (SIMOA™, Myriad RBM—see also Rissin et al., Anal Chem (2011) 83(6):2279-2285). Statistical analysis was based on geometric mean ratio to baseline; a two-sample t-test at significance alpha level of 5% was used for calculation of the p-values.

[3] = 200 mg BID, N = 26, placebo 33.3%

CN1C(=O)c2cccc(OC(F)F)c2[C@H]2C[C@@H]1c1nc3ccc(-c4cnc(C5(N)CCC5)nc4)cc3n12 [Compound 1, (7R,14R)-11-[2-(1-aminocyclobutyl)pyrimidin-5-yl]-1-(difluoromethoxy)-6-methyl-6,7-dihydro-7,14-methanobenzimidazo[1,2-b][2,5]benzodiazocin-5(14H)-one]
change in sIGA score (in words) ([1]; compared with placebo): clinically important change in sIGA score after 4 weeks of treatment; also recorded: a higher percentage of patients receiving Compound 1 improved from ‘moderate’ disease at baseline, to ‘mild’ or ‘almost clear’ at week 2 and week 4
% of subjects with no change in sIGA from baseline ([1]; week 2): 68.0%
% of subjects with sIGA change from baseline of −1 ([1]; week 2): 32.0%
Number of subjects with no change in sIGA from baseline ([1]; week 2): 17
Number of subjects with sIGA change from baseline of +1 ([1]; week 2): 0
Number of subjects with sIGA change from baseline of −1 ([1]; week 2): 8
% of subjects with no change in sIGA from baseline ([1]; week 4): 38.5%
% of subjects with sIGA change from baseline of +1 ([1]; week 4): 4.2%
Number of subjects with no change in sIGA from baseline ([1]; week 4): 9
Number of subjects with sIGA change from baseline of +1 ([1]; week 4): 1
Number of subjects with sIGA change from baseline of −1 ([1]; week 4): 14
% of subjects with sIGA change from baseline of −1 (improvement by at least 1 severity level) ([1]; week 4, placebo 0%): 58.3%
safety and tolerability (in words) ([2]; 200 mg BID over 28 days): safe and well-tolerated
serious AEs (SAEs), severe TEAEs or AEs of special interest (AESI) ([2]; 200 mg BID, 4 weeks): no serious AEs (SAEs), severe TEAEs or AEs of special interest (AESI); also recorded: no serious AEs, severe treatment emergent AEs, or AESI being reported; also recorded: No serious or severe adverse events were observed
Number of TEAEs leading to permanent study intervention discontinuation ([2]; 200 mg BID, 2 participants): 2
drop-out due to CPK increase ([2]; 200 mg BID, Day 8, linked to increased physical activity): another participant dropped out on Day 8 due to CPK increase (grade 2) assessed by the investigator as non-drug related
drop-out due to nausea ([2]; 200 mg BID, Day 15): one participant dropped out on Day 15 due to nausea assessed by the investigator as drug related
Number of participants with Dysgeusia (PT) ([2]; 200 mg BID, N = 26, placebo 0): 16
% of participants with Dysgeusia (PT) ([2]; 200 mg BID, N = 26, placebo 0%): 61.5%
Number of participants with gastrointestinal disorders (SOC) ([2]; 200 mg BID, N = 26, placebo 2): 8
Number of participants with headache (PT) ([2]; 200 mg BID, N = 26, placebo 4): 8
Number of participants with infections and infestations (SOC) ([2]; 200 mg BID, N = 26, placebo 4): 4
Number of participants with nervous systems disorders (SOC) ([2]; 200 mg BID, N = 26, placebo 4): 19
% of participants with gastrointestinal disorders (SOC) ([2]; 200 mg BID, N = 26, placebo 16.7%): 30.8%
% of participants with headache (PT) [2, 3]: 30.8%
% of participants with infections and infestations (SOC) [2, 3]: 15.4%
% of participants with nervous systems disorders (SOC) [2, 3]: 73.1%
severity of TEAEs ([2]; 200 mg BID, NCI-CTCAE grades): All TEAEs were of grade 1 or grade 2 severity and participants fully recovered
time for CPK value to return to baseline level ([2]; 200 mg BID, one participant, CPK increase grade 2): 7 days
% of participants with treatment-emergent adverse events (TEAEs) ([2]; 26 participants, 200 mg BID, 4 weeks, placebo 58.3%): 92.3%
Number of participants with treatment-emergent adverse events (TEAEs) ([2]; out of 26 participants, 200 mg BID, 4 weeks, placebo 7 of 12): 24
PCSA for vital signs, ECG and laboratory parameters (in words) ([2]; scattered across placebo and Compound 1 groups): no safety concerns based on vital signs, ECG or laboratory results; also recorded: All were considered not clinically meaningful by the investigator
Serum level of IL-17A (in words) (IL-17A; after treatment for 4 weeks): substantially decreased
Serum level of IL-17A, geometric mean (geometric SE) (IL-17A; baseline (before treatment)): 0.62 (1.15) pg/mL
Serum level of IL-17A, geometric mean (geometric SE) (IL-17A; week 2, 200 mg BID): 0.56 (1.13) pg/mL
Serum level of IL-17A, geometric mean (geometric SE) (IL-17A; week 4, 200 mg BID): 0.45 (1.14) pg/mL
